Source: ChEMBL document CHEMBL1201862, “PubChem BioAssay data set” (2004)
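Where inhibition never reached the appropriate level, the endpoint shown equals the highest concentration tested. Otherwise, values were interpolated linearly from a five-concentration, 48-hour dose response in 96-well plates. Abbreviation: GI50, concentration required for 50% inhibition of growth.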 Calls of active or inactive are those of the source. Rule as the data show it: active = GI50 up to about 1.1 µM and inactive = higher.

Tests used:
Test in all cases: NCI anticancer screen, dose series, 48 h
[1] = tested on: UACC-257
[2] = tested on: MDA-MB-435
[3] = tested on: OVCAR-8
[4] = tested on: SK-MEL-5
[5] = tested on: BT-549
[6] = tested on: DU-145
[7] = tested on: ACHN
[8] = tested on: TK-10
[9] = tested on: NCI-H522
[10] = tested on: PC-3
[11] = tested on: RXF 393
[12] = tested on: M14
[13] = tested on: HCC 2998
[14] = tested on: SK-MEL-28
[15] = tested on: SNB-19
[16] = tested on: HOP-92
[17] = tested on: A549
[18] = tested on: IGROV-1
[19] = tested on: UO-31
[20] = tested on: HCT-116

Q: With `COc1ccc(NC2=NCCO2)c2c1CCCC2` as the compound, how does the GI50 [1] read?
A: 26.3 µM (inactive)

Q: What about the GI50 [2] of the same compound?
A: 29.6 µM (inactive)

Q: What about the GI50 [3] of the same compound?
A: 36.7 µM (inactive)

Q: What about the GI50 [4] of the same compound?
A: 17.5 µM (inactive)

Q: What about the GI50 [5] of the same compound?
A: 30.2 µM (inactive)

Q: What about the GI50 [6] of the same compound?
A: 51.2 µM (inactive)

Q: What about the GI50 [7] of the same compound?
A: 29.6 µM (inactive)

Q: What about the GI50 [8] of the same compound?
A: 51.3 µM (inactive)

Q: What about the GI50 [9] of the same compound?
A: 31.8 µM (inactive)

Q: What about the GI50 [10] of the same compound?
A: 26.7 µM (inactive)

Q: And the GI50 [11]?
A: 21.4 µM (inactive)

Q: What about the GI50 [12] of the same compound?
A: 29.2 µM (inactive)

Q: What about the GI50 [13] of the same compound?
A: 31.9 µM (inactive)

Q: What about the GI50 [14] of the same compound?
A: 30.9 µM (inactive)

Q: What about the GI50 [15] of the same compound?
A: 39.4 µM (inactive)

Q: And the GI50 [16]?
A: 19.8 µM (inactive)

Q: And the GI50 [17]?
A: 40.7 µM (inactive)

Q: And the GI50 [18]?
A: 22.8 µM (inactive)

Q: What about the GI50 [19] of the same compound?
A: 53.5 µM (inactive)

Q: What about the GI50 [20] of the same compound?
A: 28.8 µM (inactive)

Q: Which GI50 [1] does the source give for `Brc1ccc2c(-c3csc(-c4c[nH]c5ccccc45)n3)c[nH]c2c1` here?
A: 22.8 µM (inactive)

Q: What about the GI50 [2] of the same compound?
A: 14.9 µM (inactive)

Q: What about the GI50 [3] of the same compound?
A: 18.2 µM (inactive)

Q: What about the GI50 [4] of the same compound?
A: 15.3 µM (inactive)

Q: What about the GI50 [5] of the same compound?
A: 18.3 µM (inactive)

Q: What about the GI50 [6] of the same compound?
A: 18.8 µM (inactive)

Q: And the GI50 [7]?
A: 15.7 µM (inactive)

Q: What about the GI50 [8] of the same compound?
A: 12.4 µM (inactive)

Q: And the GI50 [9]?
A: 17.3 µM (inactive)

Q: What about the GI50 [10] of the same compound?
A: 15.6 µM (inactive)

Q: What about the GI50 [11] of the same compound?
A: 22.4 µM (inactive)

Q: And the GI50 [12]?
A: 14.3 µM (inactive)

Q: And the GI50 [13]?
A: 15.1 µM (inactive)

Q: And the GI50 [14]?
A: 14.9 µM (inactive)

Q: And the GI50 [15]?
A: 17.8 µM (inactive)

Q: What about the GI50 [16] of the same compound?
A: 15.6 µM (inactive)

Q: What about the GI50 [17] of the same compound?
A: 15.8 µM (inactive)

Q: What about the GI50 [18] of the same compound?
A: 13 µM (inactive)

Q: What about the GI50 [19] of the same compound?
A: 14 µM (inactive)

Q: What about the GI50 [20] of the same compound?
A: 14.7 µM (inactive)

Q: Which results are given for `N=C1C(=N)c2ccccc2-c2ccccc21`?
A: GI50 [1]: 0.692 µM (active); GI50 [2]: 0.199 µM (active); GI50 [3]: 1.03 µM (active); GI50 [4]: 0.308 µM (active); GI50 [5]: 0.914 µM (active); GI50 [6]: 1.49 µM (inactive); GI50 [7]: 1.41 µM (inactive); GI50 [8]: 1.65 µM (inactive); GI50 [9]: 1.21 µM (inactive); GI50 [10]: 1.52 µM (inactive); GI50 [11]: 1.82 µM (inactive); GI50 [12]: 1.05 µM (active); GI50 [13]: 1.96 µM (inactive); GI50 [14]: 1.35 µM (inactive); GI50 [15]: 1.53 µM (inactive); GI50 [16]: 2.49 µM (inactive); GI50 [17]: 1.74 µM (inactive); GI50 [18]: 2 µM (inactive); GI50 [19]: 1.61 µM (inactive); GI50 [20]: 0.384 µM (active)

Q: Which results are given for `O=C1CSC(=S)N1/N=C/c1ccc(Cl)c([N+](=O)[O-])c1`?
A: GI50 [1]: 23.8 µM (inactive); GI50 [2]: 20.7 µM (inactive); GI50 [3]: 32.9 µM (inactive); GI50 [4]: 53.6 µM (inactive); GI50 [5]: 19.8 µM (inactive); GI50 [6]: 36.6 µM (inactive); GI50 [7]: 23.3 µM (inactive); GI50 [8]: 53.5 µM (inactive); GI50 [9]: 18.3 µM (inactive); GI50 [10]: 24.6 µM (inactive); GI50 [11]: 33.8 µM (inactive); GI50 [12]: 18.8 µM (inactive); GI50 [13]: 11.9 µM (inactive); GI50 [14]: 27.5 µM (inactive); GI50 [15]: 22.9 µM (inactive); GI50 [16]: 27.6 µM (inactive); GI50 [17]: 46.2 µM (inactive); GI50 [18]: 36.7 µM (inactive); GI50 [19]: 27.6 µM (inactive); GI50 [20]: 23 µM (inactive)

Q: `COc1ccccc1CNC(=O)[C@H](Cc1ccc(O)cn1)NC(C)=O` was tested. Which GI50 [1] did it give?
A: > 100 µM (inactive)

Q: What about the GI50 [2] of the same compound?
A: > 100 µM (inactive)

Q: And the GI50 [4]?
A: > 100 µM (inactive)

Q: What about the GI50 [5] of the same compound?
A: > 100 µM (inactive)

Q: And the GI50 [6]?
A: > 100 µM (inactive)

Q: What about the GI50 [7] of the same compound?
A: > 100 µM (inactive)

Q: And the GI50 [8]?
A: > 100 µM (inactive)

Q: What about the GI50 [9] of the same compound?
A: > 100 µM (inactive)

Q: What about the GI50 [10] of the same compound?
A: > 100 µM (inactive)

Q: And the GI50 [11]?
A: > 100 µM (inactive)

Q: And the GI50 [12]?
A: > 100 µM (inactive)

Q: What about the GI50 [13] of the same compound?
A: > 100 µM (inactive)

Q: What about the GI50 [14] of the same compound?
A: > 100 µM (inactive)

Q: What about the GI50 [15] of the same compound?
A: > 100 µM (inactive)

Q: What about the GI50 [16] of the same compound?
A: 57.7 µM (inactive)

Q: And the GI50 [17]?
A: > 100 µM (inactive)

Q: And the GI50 [18]?
A: > 100 µM (inactive)

Q: And the GI50 [19]?
A: > 100 µM (inactive)

Q: And the GI50 [20]?
A: > 100 µM (inactive)

Q: For `NC1=CN(Cc2ccccc2)C2=N/C(=C\c3ccccc3O)C(=O)N12`, which GI50 [1] is on record?
A: > 100 µM (inactive)

Q: What about the GI50 [2] of the same compound?
A: > 100 µM (inactive)

Q: And the GI50 [3]?
A: > 100 µM (inactive)

Q: And the GI50 [4]?
A: 90.8 µM (inactive)

Q: What about the GI50 [5] of the same compound?
A: > 100 µM (inactive)

Q: And the GI50 [6]?
A: > 100 µM (inactive)

Q: What about the GI50 [7] of the same compound?
A: > 100 µM (inactive)

Q: And the GI50 [8]?
A: > 100 µM (inactive)

Q: What about the GI50 [9] of the same compound?
A: > 100 µM (inactive)

Q: What about the GI50 [10] of the same compound?
A: > 100 µM (inactive)

Q: And the GI50 [11]?
A: > 100 µM (inactive)

Q: What about the GI50 [12] of the same compound?
A: > 100 µM (inactive)

Q: What about the GI50 [13] of the same compound?
A: > 100 µM (inactive)

Q: And the GI50 [14]?
A: > 100 µM (inactive)

Q: And the GI50 [15]?
A: > 100 µM (inactive)

Q: And the GI50 [16]?
A: > 100 µM (inactive)

Q: And the GI50 [17]?
A: > 100 µM (inactive)

Q: And the GI50 [18]?
A: > 100 µM (inactive)

Q: And the GI50 [19]?
A: 70.3 µM (inactive)

Q: What about the GI50 [20] of the same compound?
A: > 100 µM (inactive)

Q: With `Cc1cccc(C)c1Nc1nc(C)c(C(=O)CC(=O)C(=O)Nc2c(C(C)C)cccc2C(C)C)s1` as the compound, how does the GI50 [1] read?
A: > 100 µM (inactive)

Q: What about the GI50 [2] of the same compound?
A: > 100 µM (inactive)

Q: And the GI50 [3]?
A: > 100 µM (inactive)

Q: What about the GI50 [4] of the same compound?
A: > 100 µM (inactive)

Q: What about the GI50 [5] of the same compound?
A: > 100 µM (inactive)

Q: And the GI50 [6]?
A: > 100 µM (inactive)

Q: What about the GI50 [7] of the same compound?
A: > 100 µM (inactive)

Q: What about the GI50 [8] of the same compound?
A: > 100 µM (inactive)

Q: And the GI50 [9]?
A: > 100 µM (inactive)

Q: And the GI50 [10]?
A: 78.3 µM (inactive)

Q: What about the GI50 [11] of the same compound?
A: 43.8 µM (inactive)

Q: What about the GI50 [12] of the same compound?
A: > 100 µM (inactive)

Q: What about the GI50 [13] of the same compound?
A: > 100 µM (inactive)

Q: And the GI50 [14]?
A: > 100 µM (inactive)

Q: And the GI50 [15]?
A: > 100 µM (inactive)

Q: What about the GI50 [16] of the same compound?
A: 43.4 µM (inactive)

Q: What about the GI50 [17] of the same compound?
A: > 100 µM (inactive)

Q: And the GI50 [18]?
A: > 100 µM (inactive)

Q: And the GI50 [19]?
A: 39.4 µM (inactive)

Q: And the GI50 [20]?
A: > 100 µM (inactive)
